In the NIST ThermoML archive (doi:10.1021/je900520a):
± gives the expanded uncertainty stated by the source.

Conditions: Crystal; visual observation

| Normal melting temperature | Compound |
| --- | --- |
| 242 ± 1 °C | C[C@]12C=CC(=O)N[C@@H]1CC[C@@H]1[C@@H]2CC[C@]2(C)[C@@H](C(=O)Nc3cc(C(F)(F)F)ccc3C(F)(F)F)CC[C@@H]12 [dutasteride] |
| 252 ± 1 °C | CC(C)(C)NC(=O)[C@H]1CC[C@H]2[C@@H]3CC[C@H]4NC(=O)C=C[C@]4(C)[C@H]3CC[C@]12C [finasteride] |
| 111 ± 1 °C | CC(C)C(=O)Nc1ccc([N+](=O)[O-])c(C(F)(F)F)c1 [flutamide] |
